Where “and” joins values, the source holds several entries; their conditions need not be identical. Equal entries are not always repeated.
How the values were obtained:
[1] = test system: HepG2 cells (Pgp +ve); test: Cell viability, ATP levels 72 h; type: cell-based, human; details: for Cell viability (ATP levels): HEPG2
Experimental: Supplementary Fig. 15: PU-HZ151 activity in cells is unaffected by Pgp overexpression. a Two Pgp-positive cells lines, Kasumi-1 and HepG2, were tested for epichaperome-positivity. β-Actin, loading control. b ATP levels in cell treated for 72 h with 0 to 1 µM PU-HZ151. Data are presented as means ±s.e.m. of three experimental repeats. Control, vehicle (DMSO) treated cells. c Western blot analysis of aberrant signaling pathway inhibition by […]
(also on this page, place not known: MDA‐MB-468ASPC1Kasumi Hep G2 ATP levels %Control MDA‐MB-468ASPC1Kasumi 1Hep G2 β-Actin HSP90α Native-PAGE SDS PAGE 100- β-Actin 1)

[2] = molecular target: T1, 70 key receptor, enzyme, and ion channel proteins (Homo sapiens, UniProt P08908); test: General side effect profile (SEP) II diversity panel; type: binding
T1 construct: purchased Caliper Life Sciences (now PerkinElmer), NOVASCREEN General SEP II
T1 sequence (P08908 whole entry): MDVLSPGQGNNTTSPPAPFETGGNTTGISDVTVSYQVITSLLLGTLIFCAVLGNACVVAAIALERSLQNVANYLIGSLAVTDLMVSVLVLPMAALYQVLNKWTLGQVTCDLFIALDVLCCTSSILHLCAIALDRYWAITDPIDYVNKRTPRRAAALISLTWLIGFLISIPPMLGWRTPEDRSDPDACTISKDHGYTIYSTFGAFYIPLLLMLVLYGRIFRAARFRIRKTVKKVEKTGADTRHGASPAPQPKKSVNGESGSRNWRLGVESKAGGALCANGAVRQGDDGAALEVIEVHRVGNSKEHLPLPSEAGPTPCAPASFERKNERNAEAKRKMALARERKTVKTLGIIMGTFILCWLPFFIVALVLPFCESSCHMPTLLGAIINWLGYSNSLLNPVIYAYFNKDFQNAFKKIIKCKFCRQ

[3] = molecular target: T2, 70 key receptor, enzyme, and ion channel proteins (Homo sapiens, UniProt P49146); test: as above; type: binding; details: 1.0E-5 M
T2 construct: purchased Caliper Life Sciences (now PerkinElmer), NOVASCREEN General SEP II
T2 sequence (P49146 whole entry): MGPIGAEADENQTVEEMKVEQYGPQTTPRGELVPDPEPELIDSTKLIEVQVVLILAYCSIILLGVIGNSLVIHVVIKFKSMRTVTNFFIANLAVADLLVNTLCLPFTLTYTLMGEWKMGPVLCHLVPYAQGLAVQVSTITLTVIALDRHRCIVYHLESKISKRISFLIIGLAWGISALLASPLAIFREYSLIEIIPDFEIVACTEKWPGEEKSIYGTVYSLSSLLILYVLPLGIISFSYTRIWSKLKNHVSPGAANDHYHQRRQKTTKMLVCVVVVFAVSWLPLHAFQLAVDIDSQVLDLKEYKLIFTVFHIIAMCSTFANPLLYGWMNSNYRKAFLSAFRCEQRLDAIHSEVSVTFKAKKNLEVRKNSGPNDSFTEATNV

[4] = molecular target: T3, muscarinic receptor M5 (printed "MS") (Homo sapiens, UniProt P08912); test: as above; type: binding; details: human; 1.0E-5 M; read-out: Percent Inhibition: Muscarinic, MS (h)
T3 construct: purchased Caliper Life Sciences (now PerkinElmer), NOVASCREEN General SEP II
T3 sequence (P08912 whole entry): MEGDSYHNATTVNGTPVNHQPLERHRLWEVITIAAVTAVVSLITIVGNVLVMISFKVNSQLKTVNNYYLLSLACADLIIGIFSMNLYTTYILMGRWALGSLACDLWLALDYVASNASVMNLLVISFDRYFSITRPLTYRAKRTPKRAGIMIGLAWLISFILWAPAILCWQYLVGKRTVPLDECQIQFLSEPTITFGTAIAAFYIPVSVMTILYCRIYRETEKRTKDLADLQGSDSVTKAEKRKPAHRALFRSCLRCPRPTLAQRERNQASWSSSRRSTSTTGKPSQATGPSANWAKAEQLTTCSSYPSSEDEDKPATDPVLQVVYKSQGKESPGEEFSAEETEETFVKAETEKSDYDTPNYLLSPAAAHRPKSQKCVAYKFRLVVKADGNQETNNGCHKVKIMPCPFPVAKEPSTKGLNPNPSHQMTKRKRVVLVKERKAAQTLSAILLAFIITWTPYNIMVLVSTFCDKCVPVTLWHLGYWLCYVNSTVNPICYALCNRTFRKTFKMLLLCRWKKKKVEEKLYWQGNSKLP

[5] = molecular target: T4, 70 key receptor, enzyme, and ion channel proteins (Homo sapiens, UniProt P25101); test: as above; type: binding; details: 1.0E-5 M
T4 construct: purchased Caliper Life Sciences (now PerkinElmer), NOVASCREEN General SEP II
T4 sequence (P25101 21-427): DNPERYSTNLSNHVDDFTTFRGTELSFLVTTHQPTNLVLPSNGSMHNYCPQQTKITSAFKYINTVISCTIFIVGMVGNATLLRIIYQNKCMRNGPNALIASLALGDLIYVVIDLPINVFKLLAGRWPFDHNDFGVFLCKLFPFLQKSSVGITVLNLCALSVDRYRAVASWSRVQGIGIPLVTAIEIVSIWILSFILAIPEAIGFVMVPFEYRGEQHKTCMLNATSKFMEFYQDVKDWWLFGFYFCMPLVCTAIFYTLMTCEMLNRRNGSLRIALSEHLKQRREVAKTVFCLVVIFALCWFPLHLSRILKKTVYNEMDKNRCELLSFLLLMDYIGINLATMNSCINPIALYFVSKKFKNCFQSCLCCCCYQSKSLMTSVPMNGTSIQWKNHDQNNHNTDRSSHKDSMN

[6] = molecular target: T5, 70 key receptor, enzyme, and ion channel proteins (Homo sapiens, UniProt P47898); test: as above; type: binding; details: 1.0E-5 M
T5 construct: purchased Caliper Life Sciences (now PerkinElmer), NOVASCREEN General SEP II
T5 sequence (P47898 whole entry): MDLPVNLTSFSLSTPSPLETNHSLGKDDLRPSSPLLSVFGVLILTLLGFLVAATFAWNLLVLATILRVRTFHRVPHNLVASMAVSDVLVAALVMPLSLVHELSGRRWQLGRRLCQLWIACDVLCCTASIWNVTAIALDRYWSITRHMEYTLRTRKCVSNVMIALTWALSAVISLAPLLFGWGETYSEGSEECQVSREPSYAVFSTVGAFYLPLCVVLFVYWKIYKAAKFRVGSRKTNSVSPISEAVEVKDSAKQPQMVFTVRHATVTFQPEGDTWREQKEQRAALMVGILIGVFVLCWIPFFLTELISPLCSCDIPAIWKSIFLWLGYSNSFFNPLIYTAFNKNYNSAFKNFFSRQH

[7] = molecular target: T6, 70 key receptor, enzyme, and ion channel proteins (Homo sapiens, UniProt P08173); test: as above; type: binding; details: 1.0E-5 M
T6 construct: purchased Caliper Life Sciences (now PerkinElmer), NOVASCREEN General SEP II
T6 sequence (P08173 whole entry): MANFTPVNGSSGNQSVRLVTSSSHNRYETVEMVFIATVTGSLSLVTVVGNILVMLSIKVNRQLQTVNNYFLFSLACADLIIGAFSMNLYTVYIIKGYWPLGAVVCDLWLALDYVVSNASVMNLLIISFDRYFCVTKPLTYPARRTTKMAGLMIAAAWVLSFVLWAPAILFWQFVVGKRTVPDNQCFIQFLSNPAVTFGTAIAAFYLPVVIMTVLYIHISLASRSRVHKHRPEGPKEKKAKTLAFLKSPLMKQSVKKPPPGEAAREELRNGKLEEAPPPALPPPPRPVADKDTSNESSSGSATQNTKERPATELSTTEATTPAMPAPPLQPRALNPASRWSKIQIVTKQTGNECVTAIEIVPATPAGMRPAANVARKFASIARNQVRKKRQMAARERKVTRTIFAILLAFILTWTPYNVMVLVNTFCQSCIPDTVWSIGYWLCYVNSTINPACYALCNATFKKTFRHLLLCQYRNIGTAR

[8] = molecular target: T7, hERG potassium channel (IKr) (Homo sapiens, UniProt Q12809); test: as above; type: binding; details: human; 1.0E-5 M; read-out: Percent Inhibition: Potassium Channel, I [Kr] (hERG) (h)
T7 construct: purchased Caliper Life Sciences (now PerkinElmer), NOVASCREEN General SEP II
T7 sequence (Q12809 whole entry): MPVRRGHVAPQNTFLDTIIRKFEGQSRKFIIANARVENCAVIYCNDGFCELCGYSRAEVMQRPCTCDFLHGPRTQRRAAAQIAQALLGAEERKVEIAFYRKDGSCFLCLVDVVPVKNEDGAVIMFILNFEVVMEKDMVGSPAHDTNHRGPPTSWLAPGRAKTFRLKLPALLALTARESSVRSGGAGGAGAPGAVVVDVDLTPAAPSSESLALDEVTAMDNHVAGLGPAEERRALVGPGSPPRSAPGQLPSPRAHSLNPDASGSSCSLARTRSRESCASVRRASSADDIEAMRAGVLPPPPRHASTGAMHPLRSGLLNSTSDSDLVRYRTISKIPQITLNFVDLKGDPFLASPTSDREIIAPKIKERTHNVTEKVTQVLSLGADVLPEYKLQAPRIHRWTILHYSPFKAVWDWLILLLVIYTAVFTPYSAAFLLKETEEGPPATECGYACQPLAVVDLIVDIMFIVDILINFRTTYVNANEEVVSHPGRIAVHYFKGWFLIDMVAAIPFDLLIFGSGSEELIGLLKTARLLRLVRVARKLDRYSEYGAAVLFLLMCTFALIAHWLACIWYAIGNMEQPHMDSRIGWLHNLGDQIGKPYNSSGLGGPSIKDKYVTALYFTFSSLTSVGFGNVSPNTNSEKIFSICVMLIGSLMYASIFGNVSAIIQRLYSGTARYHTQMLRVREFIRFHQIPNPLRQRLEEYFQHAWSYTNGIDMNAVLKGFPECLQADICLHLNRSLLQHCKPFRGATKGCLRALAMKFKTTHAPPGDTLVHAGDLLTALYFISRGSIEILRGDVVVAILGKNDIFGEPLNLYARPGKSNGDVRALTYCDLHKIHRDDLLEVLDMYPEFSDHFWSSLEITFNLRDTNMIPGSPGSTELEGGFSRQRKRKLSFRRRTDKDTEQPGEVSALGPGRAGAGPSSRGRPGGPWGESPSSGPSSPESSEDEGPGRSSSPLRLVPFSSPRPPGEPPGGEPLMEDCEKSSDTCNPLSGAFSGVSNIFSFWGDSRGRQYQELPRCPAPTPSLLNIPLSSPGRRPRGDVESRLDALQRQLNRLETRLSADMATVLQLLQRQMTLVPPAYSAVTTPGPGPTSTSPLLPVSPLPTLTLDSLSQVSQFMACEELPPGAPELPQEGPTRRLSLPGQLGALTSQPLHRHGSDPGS

[9] = molecular target: 70 key receptor, enzyme, and ion channel proteins (Homo sapiens, UniProt P35372); test: as above; type: binding
Sequence of 70 key receptor, enzyme, and ion channel proteins (Homo sapiens, UniProt P35372) (P35372 whole entry): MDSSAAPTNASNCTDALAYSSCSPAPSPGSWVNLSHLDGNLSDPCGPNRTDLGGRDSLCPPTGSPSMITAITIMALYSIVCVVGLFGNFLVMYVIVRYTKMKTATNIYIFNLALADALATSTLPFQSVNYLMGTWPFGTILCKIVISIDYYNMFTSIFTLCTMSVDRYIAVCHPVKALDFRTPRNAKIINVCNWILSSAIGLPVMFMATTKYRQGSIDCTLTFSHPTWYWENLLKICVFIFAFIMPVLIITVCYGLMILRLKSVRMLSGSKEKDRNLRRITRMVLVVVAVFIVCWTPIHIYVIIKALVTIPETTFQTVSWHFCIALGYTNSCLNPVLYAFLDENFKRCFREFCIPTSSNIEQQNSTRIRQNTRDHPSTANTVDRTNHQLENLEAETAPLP

[10] = molecular target: T8, 70 key receptor, enzyme, and ion channel proteins (Homo sapiens, UniProt P34969); test: as above; type: binding; details: 1.0E-5 M
T8 construct: purchased Caliper Life Sciences (now PerkinElmer), NOVASCREEN General SEP II
T8 sequence (P34969 whole entry): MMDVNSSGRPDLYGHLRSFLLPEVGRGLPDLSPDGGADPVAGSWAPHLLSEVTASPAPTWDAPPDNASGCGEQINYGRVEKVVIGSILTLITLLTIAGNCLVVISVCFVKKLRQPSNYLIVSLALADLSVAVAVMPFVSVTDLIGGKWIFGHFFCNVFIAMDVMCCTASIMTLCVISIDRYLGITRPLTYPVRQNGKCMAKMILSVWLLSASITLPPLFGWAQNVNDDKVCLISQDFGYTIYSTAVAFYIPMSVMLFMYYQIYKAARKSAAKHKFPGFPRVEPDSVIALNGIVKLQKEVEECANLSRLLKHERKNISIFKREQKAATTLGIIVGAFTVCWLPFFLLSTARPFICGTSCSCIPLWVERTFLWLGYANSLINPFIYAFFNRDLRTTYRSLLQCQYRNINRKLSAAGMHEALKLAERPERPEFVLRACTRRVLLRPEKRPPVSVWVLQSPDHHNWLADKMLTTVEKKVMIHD

[11] = molecular target: T9, 70 key receptor, enzyme, and ion channel proteins (Homo sapiens, UniProt O76074); test: as above; type: binding; details: 1.0E-5 M
T9 construct: purchased Caliper Life Sciences (now PerkinElmer), NOVASCREEN General SEP II

[12] = test system: epichaperome -ve (ASPC1) tumors; test: Small-animal PET, xenografted tumors; type: in vivo, mouse; details: 48 h post-injection
Experimental: (§1) We opted for the use of xenografted MDA-MB-468 and ASPC1 tumors in mice (target-positive versus target-negative, respectively, with equal total HSP90 levels, Fig. 3b). Because PU-HZ151 rapidly distributes throughout the body (see Fig. 2a and further below), and taking in consideration the high concentration of chaperones in cells (>100 µM)[41], a bolus injection creates a rapid equilibrium mixture state. Subsequent to reaching an ‘equilibrium’ state throughout the body, PU-HZ151 then rapidly clears from plasma, which initiates a body-wide dilution state. Recording the differential concentration-time curves for PU-HZ151 in the two tumor types offers the relative dissociation rate constants, but most importantly, informs on probe’s epichaperome selectivity (Fig. 3a).
(§2) For subcutaneous xenografts, mice were anesthetized with 2% isoflurane (Baxter Healthcare) (2 l min^−1 medical air). […]
(§3) Orthotopic GBM xenografts in mice were established by injection of 5 × 10^5 cells in 2 μL PBS. […] PET data for each mouse was recorded using static scans of 15 min and acquired at the indicated times post injection. Quantification and %ID g^−1 values were calculated by manually drawing regions of interests in three different frames and determining the average values using ASI Pro VM™ MicroPET Analysis software (Siemens Medical Solutions, Knoxville, TX).

[13] = test system: epichaperome +ve (MDA-MB-468) tumors; test: Small-animal PET, xenografted tumors; type: in vivo, mouse; details: 48 h post-injection
Experimental: as §1, §2, §3

## CC(C)(C)CNCCn1c(Sc2cc3c(cc2I)OCO3)nc2c(N)ncnc21 [Compound 85]
[1]
  activity in Pgp-overexpressing vs Pgp-low cells: comparable activity
[1]; 1.95312 nM, replicates, listed as PU-HZ151, 0.00195312 µM
  Cell viability (ATP levels): 87.8706 and 102.165
[1]; 3.90625 nM, replicates, listed as PU-HZ151, 0.00390625 µM
  Cell viability (ATP levels): 90.4471 and 81.5412
[1]; 7.8125 nM, replicates, listed as PU-HZ151, 0.0078125 µM
  Cell viability (ATP levels): 90.4471 and 73.8824
[1]; 15.625 nM, replicates, listed as PU-HZ151, 0.015625 µM
  Cell viability (ATP levels): 83.4588 and 82.6941
[1]; 31.25 nM, replicates, listed as PU-HZ151, 0.03125 µM
  Cell viability (ATP levels): 65.6706 and 60.9647
[1]; 62.5 nM, replicates, listed as PU-HZ151, 0.0625 µM
  Cell viability (ATP levels): 37.2471 and 23.6471
[1]; 125 nM, replicates, listed as PU-HZ151, 0.125 µM
  Cell viability (ATP levels): 13.5294 and 11.2118
[1]; 500 nM, replicates, listed as PU-HZ151, 0.5 µM
  Cell viability (ATP levels): 2.612 and 2.282
[1]; 1000 nM, replicates, listed as PU-HZ151, 1 µM
  Cell viability (ATP levels): 1.824
[1]; Homo sapiens, HepG2, HEPG2, 1.95312 nM, replicates
  viability at 0.00195312 µM: 99.4%
[1]; Homo sapiens, HepG2, HEPG2, 3.90625 nM, replicates
  viability at 0.00390625 µM: 81.2%
[1]; Homo sapiens, HepG2, HEPG2, 7.8125 nM, replicates
  viability at 0.0078125 µM: 79.7%
[1]; Homo sapiens, HepG2, HEPG2, 15.625 nM, replicates
  viability at 0.015625 µM: 72.1%
[1]; Homo sapiens, HepG2, HEPG2, 31.25 nM, replicates
  viability at 0.03125 µM: 70.3%
[1]; Homo sapiens, HepG2, HEPG2, 62.5 nM, replicates
  viability at 0.0625 µM: 27.4%
[1]; Homo sapiens, HepG2, HEPG2, 125 nM, replicates
  viability at 0.125 µM: 16.9%
[1]; Homo sapiens, HepG2, HEPG2, 250 nM, replicates
  viability at […]: 2.72%
[1]; Homo sapiens, HepG2, HEPG2, 500 nM, replicates
  viability at 0.5 µM: 1.86%
[1]; Homo sapiens, HepG2, HEPG2, 1000 nM, replicates
  viability at 1 µM: 1.85%
[2]
  Percent Inhibition: Serotonin, 5HT1A (h): -16.30%
[3]
  Percent Inhibition: Neuropeptide, NPY2 (h): 28.79%
[4]
  inhibition at 10 µM: 69.9%
[5]
  Percent Inhibition: Endothelin, ET-A (h): 13.54%
[6]
  Percent Inhibition: Serotonin, 5HT5A (h): 11.09%
[7]
  Percent Inhibition: Muscarinic, M4 (h): 27.60%
[8]
  inhibition at 10 µM: -18%
[9]
  Percent Inhibition: Opioid, Mu (h): 56.70%
[10]
  Percent Inhibition: Serotonin, 5HT7 (h): 14.36%
[11]
  Percent Inhibition: Phosphodiesterase, PDE5Al (h): -35.00%
[12]
  tumor retention by PET: no signal was noted in ASPC1 tumors
[13]
  tumor retention by PET: clear retention and visualization of MDA-MB-468 tumors even at 48 h post-injection

Source: paper PMC8333062, “Chemical tools for epichaperome-mediated interactome dysfunctions of the central nervous system” (Nature Communications, 2021)
